The values below come from patent US7312213B2, “Substituted benzo[e][1,4]oxazino[3,2-g]isoindole compounds” (Les Laboratories Servier, priority 2002, dated 2007).

Counter-ions that a name gives are not always drawn.

One data set has as its system L1210 murine leukaemia. Kind of data set: In vitro cytotoxicity, L1210 murine leukaemia (Microculture Tetrazolium Assay). Format: cell-based. The settings on record: Mus musculus; L1210, 48 hours exposure (4 doubling periods); read-out: IC50, concentration of cytotoxic agent that inhibits the proliferation of the treated cells by 50%. The procedure:
(§1) L1210 murine leukaemia was used in vitro. The cells are cultured in RPMI 1640 complete culture medium containing 10% foetal calf serum, 2 mM glutamine, 50 units/ml of penicillin, 50 μg/ml of streptomycin and 10 mM Hepes, pH=7.4. The cells are distributed on microplates and are exposed to the cytotoxic compounds for 4 doubling periods, or 48 hours. The number of viable cells is then quantified by a colorimetric assay, the Microculture Tetrazolium Assay (J. Carmichael et al., Cancer Res.; 47, 939-942 (1987)). The results are expressed as the IC50, the concentration of cytotoxic agent that inhibits the proliferation of the treated cells by 50%.

A further data set deals with HT-29 colon carcinoma. Kind of data set: In vitro cytotoxicity, human solid tumour cell line HT-29. The format is cell-based. As to conditions: 96 h, incubation 4 days. The procedure:
as §1
(§2) The compounds of the invention were also tested on human cell lines originating from solid tumours, in accordance with the same test protocol as that described for L1210 murine leukaemia but with incubation periods of 4 days instead of 2 days.

For a further data set, the system named is DU145 prostate carcinoma. Kind of data set: In vitro cytotoxicity, human solid tumour cell line DU145. Format: cell-based. The settings on record: DU-145, 96 h, incubation 4 days. The method, then: as §1, §2
The test system of data set [1] is A549 non-small-cell lung carcinoma. Briefly: In vitro cytotoxicity, human solid tumour cell line A549. The format is cell-based. The settings on record: 96 h, incubation 4 days. The method, then: as §1, §2
Data set [2] relates to KB-3-1 epidermoid carcinoma. Briefly: In vitro cytotoxicity, human solid tumour cell line KB-3-1. The format is cell-based. The settings on record: 96 h, incubation 4 days. The method, then:
as §1, §2

Compound `CN(C)CCn1c(=O)c2c3cc(OCCO)ccc3c3c(oc4ccccc4n3C=O)c2c1=O` [Example 7, 8-(Formyl)-2-[2-(dimethylamino)ethyl]-5-(2-hydroxyethoxy)-benzo[a]pyrrolo[3,4-c]phenoxazine-1,3-dione] had a melting point of 202 °C.

For `CN(C)CCn1c(=O)c2c3cc(O)ccc3c3c(oc4ccccc4n3C(=O)OC(C)(C)C)c2c1=O` [Example 1, 8-(tert-Butoxycarbonyl)-2-[2-(dimethylamino)ethyl]-5-hydroxy-2,3-dihydrobenzo[a]pyrrolo[3,4-c]phenoxazine-1,3-dione], the melting point is 190 °C (dec.).

`CN(C)CCn1c(=O)c2c3cc(OCCO)ccc3c3[nH]c4ccccc4oc3c2c1=O` [Example 6, 2-[2-(Dimethylamino)ethyl]-5-(2-hydroxyethoxy)benzo-[a]pyrrolo[3,4-c]phenoxazine-1,3-dione]: the melting point is 216 °C.

For the compound `Cn1c(=O)c2c3cc(OCCO)ccc3c3c(oc4cccnc4n3C(=O)Oc3ccccc3)c2c1=O` [Example 8, 8-(Phenoxycarbonyl)-5-(2-hydroxyethoxy)-2-methyl-2,3-dihydrobenzo[e]pyrido[2′,3′:5,6][1,4]oxazino[3,2-g]isoindole-1,3-dione], the melting point stood at 250 °C.

As for `CN(C)CCn1c(=O)c2c3cc(O)ccc3c3[nH]c4ccccc4oc3c2c1=O` [Example 2, 2-[2-(Dimethylamino)ethyl]-5-hydroxybenzo[a]pyrrolo[3,4-c]phenoxazine-1,3-dione hydrochloride], the IC50 turned out to be 250 nM with L1210 murine leukaemia; 600 nM in the data set with HT-29 colon carcinoma; 270 nM in the data set with DU145 prostate carcinoma; 160 nM in data set [1]; 260 nM in data set [2].

`CN(C)CCn1c(=O)c2c3cc(OCCO)ccc3c3c(oc4ccccc4n3C(=O)OC(C)(C)C)c2c1=O` [Example 3, 8-(tert-Butoxycarbonyl)-2-[2-(dimethylamino)ethyl]-5-(2-hydroxy-ethoxy)-2,3-dihydrobenzo[a]pyrrolo [3,4-c]phenoxazine-1,3-dione]: the melting point was > 80 °C (dec.).
